Results published in US6177426A, “Morpholino-N-ethyl ester prodrugs of indole sPLA2 inhibitors” (Eli Lilly and Company, priority 2000, dated 2001).

Tests used:
[1] = Rat plasma pharmacokinetics study, oral bioavailability; assay type: in vivo, Rat (Fischer 344); conditions: compared to other ester prodrugs
Procedure: The bioavailability of the compound of the invention, ((3-(2-Amino-1,2-dioxoethyl)-1-((1,1'-biphenyl)-3-ylmethyl)-2-methyl-1H-indol-4-yl)oxy)acetic acid morpholino-N-ethyl ester, was determined using a Rat Study Protocol Plasma
The purpose of this assay was to evaluate and compare the oral delivery for selected sPLA2 inhibitors.
The amount of sPLA2 inhibitor was corrected for free acid equivalents.
Suspension of sPLA2 inhibitor in 10% Acacia, prepared just prior to dose administration
Dose: 10 mg/kg (of the parent acid)
Blood samples (0.8 ml) were obtained at the following times: 0.5, 1, 2, 4, 8 and 24 hours (2 rats/timepoint)
Plasma was assayed by HPLC to measure concentrations of the different sPLA2 inhibitors (measured as free acids). Cmax (maximal plasma concentrations), and AUC values were determined from the mean plasma concentration-time profiles.

[2] = molecular target: recombinant human secreted phospholipase A2; conditions: guinea pig lung tissue; sPLA2 10 ug/ml; data from U.S. Pat. No. 5,654,326; read-out: Tissue test secreted PLA2 Apparent KB; cited from earlier work
[3] = molecular target: recombinant human secreted phospholipase A2; conditions: data from U.S. Pat. No. 5,654,326, cited from earlier work

Cc1c(C(=O)C(N)=O)c2c(OCC(=O)OCCN3CCOCC3)cccc2n1Cc1cccc(-c2ccccc2)c1 [Compound of formula (I), ((3-(2-amino-1,2-dioxoethyl)-1-((1,1'-biphenyl)-3-ylmethyl)-2-methyl-1H-indol-4-yl)oxy)acetic acid morpholino-N-ethyl ester]
oral bioavailability compared to other esters (in words) ([1]; listed as morpholino-N-ethyl ester): unexpectedly more bioavailable than other esters

Cc1c(C(=O)C(N)=O)c2c(OCC(=O)O)cccc2n1Cc1cccc(-c2ccccc2)c1 [formula (II)]
Kb [2]: 57 ± 11 nM
IC50 ([3]; chromogenic assay, 3-4 tests, read-out: Inhibition of human secreted PLA2 IC50 ± mean deviation (3-4 tests)): 4.33 ± 2.31 nM
inhibiting sPLA2 (conclusion in words) ([3]; conclusion of Assay 1): highly active in inhibiting sPLA2

Cc1c(C(=O)C(N)=O)c2c(OCC(=O)OCCN3CCOCC3)cccc2n1Cc1cccc(-c2ccccc2)c1 [formula (I)]
oral bioavailability compared to other esters (in words) [1]: highly bioavailable upon oral administration compared to other common ester type prodrugs
